How the values were obtained:
Experiment in all cases: Test B pre-/postemergence plant response
Format in all cases: in vivo
[1] = test system: Italian ryegrass (Lolium multiflorum)
Procedure, shortened: (§1)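 Test compounds, formulated in a non-phytotoxic solvent mixture with surfactant, are applied to the soil surface (loam and sand blend) right after seeding, or sprayed over plants at the 1- to 4-leaf stage grown in peat moss/vermiculite medium. After 13 to 15 days under glasshouse conditions, each species is scored visually from 0 (no effect) to 100 (complete control) against controls.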

[2] = test system: Surinam grass (Brachiaria decumbens)
Procedure, shortened: as §1

[3] = test system: bermudagrass (Cynodon dactylon)
Procedure, shortened: as §1

[4] = test system: blackgrass (Alopecurus myosuroides)
Procedure, shortened: as §1

[5] = test system: cocklebur (Xanthium strumarium)
Procedure, shortened: as §1

[6] = test system: corn (Zea mays)
Procedure, shortened: as §1

[7] = test system: downy bromegrass (Bromus tectorum)
Procedure, shortened: as §1

[8] = test system: green foxtail (Setaria viridis)
Procedure, shortened: as §1

[9] = test system: kochia (Kochia scoparia)
Procedure, shortened: as §1

[10] = test system: lambsquarters (Chenopodium album)
Procedure, shortened: as §1

[11] = test system: large crabgrass (Digitaria sanguinalis)
Procedure, shortened: as §1

[12] = test system: pigweed (Amaranthus retroflexus)
Procedure, shortened: as §1

[13] = test system: ragweed (common ragweed, Ambrosia elatior)
Procedure, shortened: as §1

[14] = test system: soybean (Glycine max)
Procedure, shortened: as §1

[15] = test system: velvetleaf (Abutilon theophrasti)
Procedure, shortened: as §1

[16] = test system: wild oat (Avena fatua)
Procedure, shortened: as §1

[17] = test system: yellow nutsedge (Cyperus esculentus)
Procedure, shortened: as §1

[18] = 31 g ai/ha, postemergence, scale 0 to 100, 0 is no effect, 100 is complete control
[19] = Postemergence, 62 g ai/ha, scale 0 (no effect) to 100 (complete control), 13 to 15 days
[20] = Postemergence, 125 g ai/ha, visual rating after 13 to 15 days, scale 0 (no effect) to 100 (complete control)
[21] = Postemergence, 250 g ai/ha, scale 0 to 100 (0 no effect, 100 complete control)
[22] = Preemergence, 31 g ai/ha, scale 0 to 100 (0 no effect, 100 complete control)
[23] = Preemergence, 62 g ai/ha, scale 0 to 100, 0 no effect, 100 complete control
[24] = Preemergence, 125 g ai/ha, scale 0 to 100, 0 no effect, 100 complete control
[25] = 250 g ai/ha, Preemergence, 0 to 100 scale

## Cc1cccc(-n2c(-c3ccccc3)ncc(C(=O)C3=C(O)CCCC3=O)c2=O)c1F [Compound 58]
[1]; [18]
  Plant response rating, Ryegrass, Italian: 0
[1]; [19]
  Plant response rating, Ryegrass, Italian: 0
[1]; [20]
  Plant response rating, Ryegrass, Italian: 30
[1]; [21]
  Plant response rating, Ryegrass, Italian: 70
[1]; [22]
  Plant response rating, Ryegrass, Italian: 0
[1]; [23]
  Plant response rating, Ryegrass, Italian: 0
[1]; [24]
  Plant response rating, Ryegrass, Italian: 0
[2]; [18]
  Plant response rating, Surinam Grass: 70
[2]; [19]
  Plant response rating, Surinam Grass: 80
[2]; [20]
  Plant response rating, Surinam Grass: 95
[2]; [21]
  Plant response rating, Surinam Grass: 98
[2]; [22]
  Plant response rating, Surinam Grass: 40
[2]; [23]
  Plant response rating, Surinam Grass: 65
[2]; [24]
  Plant response rating, Surinam Grass: 85
[3]; [18]
  Plant response rating, Bermudagrass: 85
[3]; [25]
  Plant response rating, Bermudagrass: 100
[3]; [19]
  Plant response rating, Bermudagrass: 85
[3]; [20]
  Plant response rating, Bermudagrass: 98
[3]; [21]
  Plant response rating, Bermudagrass: 100
[3]; [22]
  Plant response rating, Bermudagrass: 98
[3]; [23]
  Plant response rating, Bermudagrass: 98
[3]; [24]
  Plant response rating, Bermudagrass: 100
[4]; [18]
  Plant response rating, Blackgrass: 5
[4]; [25]
  Plant response rating, Blackgrass: 30
[4]; [19]
  Plant response rating, Blackgrass: 10
[4]; [20]
  Plant response rating, Blackgrass: 20
[4]; [21]
  Plant response rating, Blackgrass: 40
[4]; [22]
  Plant response rating, Blackgrass: 0
[4]; [23]
  Plant response rating, Blackgrass: 0
[4]; [24]
  Plant response rating, Blackgrass: 5
[5]; [18]
  Plant response rating, Cocklebur: 85
[5]; [25]
  Plant response rating, Cocklebur: 65
[5]; [19]
  Plant response rating, Cocklebur: 85
[5]; [20]
  Plant response rating, Cocklebur: 85
[5]; [21]
  Plant response rating, Cocklebur: 90
[5]; [22]
  Plant response rating, Cocklebur: 0
[5]; [23]
  Plant response rating, Cocklebur: 0
[5]; [24]
  Plant response rating, Cocklebur: 10
[6]; [18]
  Plant response rating, Corn: 0
[6]; [25]
  Plant response rating, Corn: 0
[6]; [19]
  Plant response rating, Corn: 45
[6]; [20]
  Plant response rating, Corn: 65
[6]; [21]
  Plant response rating, Corn: 80
[6]; [22]
  Plant response rating, Corn: 0
[6]; [23]
  Plant response rating, Corn: 0
[6]; [24]
  Plant response rating, Corn: 0
[7]; [18]
  Plant response rating, Bromegrass, Downy: 40
[7]; [25]
  Plant response rating, Bromegrass, Downy: 0
[7]; [19]
  Plant response rating, Bromegrass, Downy: 40
[7]; [20]
  Plant response rating, Bromegrass, Downy: 45
[7]; [21]
  Plant response rating, Bromegrass, Downy: 50
[7]; [22]
  Plant response rating, Bromegrass, Downy: 0
[7]; [23]
  Plant response rating, Bromegrass, Downy: 0
[7]; [24]
  Plant response rating, Bromegrass, Downy: 0
[8]; [18]
  Plant response rating, Foxtail, Green: 75
[8]; [25]
  Plant response rating, Foxtail, Green: 100
[8]; [19]
  Plant response rating, Foxtail, Green: 90
[8]; [20]
  Plant response rating, Foxtail, Green: 98
[8]; [21]
  Plant response rating, Foxtail, Green: 100
[8]; [22]
  Plant response rating, Foxtail, Green: 0
[8]; [23]
  Plant response rating, Foxtail, Green: 5
[8]; [24]
  Plant response rating, Foxtail, Green: 70
[9]; [18]
  Plant response rating, Kochia: 0
[9]; [19]
  Plant response rating, Kochia: 10
[9]; [20]
  Plant response rating, Kochia: 25
[9]; [21]
  Plant response rating, Kochia: 25
[10]; [18]
  Plant response rating, Lambsquarters: 95
[10]; [25]
  Plant response rating, Lambsquarters: 98
[10]; [19]
  Plant response rating, Lambsquarters: 95
[10]; [20]
  Plant response rating, Lambsquarters: 100
[10]; [21]
  Plant response rating, Lambsquarters: 100
[10]; [22]
  Plant response rating, Lambsquarters: 85
[10]; [23]
  Plant response rating, Lambsquarters: 98
[10]; [24]
  Plant response rating, Lambsquarters: 98
[11]; [18]
  Plant response rating, Crabgrass, Large: 75
[11]; [25]
  Plant response rating, Crabgrass, Large: 100
[11]; [19]
  Plant response rating, Crabgrass, Large: 80
[11]; [20]
  Plant response rating, Crabgrass, Large: 90
[11]; [21]
  Plant response rating, Crabgrass, Large: 90
[11]; [22]
  Plant response rating, Crabgrass, Large: 95
[11]; [23]
  Plant response rating, Crabgrass, Large: 98
[11]; [24]
  Plant response rating, Crabgrass, Large: 98
[12]; [18]
  Plant response rating, Pigweed: 80
[12]; [19]
  Plant response rating, Pigweed: 95
[12]; [20]
  Plant response rating, Pigweed: 98
[12]; [21]
  Plant response rating, Pigweed: 100
[12]; [22]
  Plant response rating, Pigweed: 85
[12]; [23]
  Plant response rating, Pigweed: 98
[12]; [24]
  Plant response rating, Pigweed: 100
[13]; [18]
  Plant response rating, Ragweed: 80
[13]; [19]
  Plant response rating, Ragweed: 85
[13]; [20]
  Plant response rating, Ragweed: 90
[13]; [21]
  Plant response rating, Ragweed: 98
[13]; [22]
  Plant response rating, Ragweed: 20
[13]; [23]
  Plant response rating, Ragweed: 75
[13]; [24]
  Plant response rating, Ragweed: 85
[14]; [18]
  Plant response rating, Soybean: 85
[14]; [19]
  Plant response rating, Soybean: 85
[14]; [20]
  Plant response rating, Soybean: 95
[14]; [21]
  Plant response rating, Soybean: 95
[14]; [22]
  Plant response rating, Soybean: 10
[14]; [24]
  Plant response rating, Soybean: 85
[15]; [18]
  Plant response rating, Velvetleaf: 75
[15]; [19]
  Plant response rating, Velvetleaf: 75
[15]; [20]
  Plant response rating, Velvetleaf: 85
[15]; [21]
  Plant response rating, Velvetleaf: 95
[15]; [22]
  Plant response rating, Velvetleaf: 75
[15]; [23]
  Plant response rating, Velvetleaf: 80
[15]; [24]
  Plant response rating, Velvetleaf: 95
[16]; [18]
  Plant response rating, Oat, Wild: 45
[16]; [19]
  Plant response rating, Oat, Wild: 60
[16]; [20]
  Plant response rating, Oat, Wild: 60
[16]; [21]
  Plant response rating, Oat, Wild: 85
[16]; [22]
  Plant response rating, Oat, Wild: 0
[16]; [23]
  Plant response rating, Oat, Wild: 0
[16]; [24]
  Plant response rating, Oat, Wild: 0
[17]; [18]
  Plant response rating, Nutsedge, Yellow: 25
[17]; [19]
  Plant response rating, Nutsedge, Yellow: 40
[17]; [20]
  Plant response rating, Nutsedge, Yellow: 55
[17]; [21]
  Plant response rating, Nutsedge, Yellow: 75
[17]; [22]
  Plant response rating, Nutsedge, Yellow: 20
[17]; [23]
  Plant response rating, Nutsedge, Yellow: 75
[17]; [24]
  Plant response rating, Nutsedge, Yellow: 75

From patent US8952024B2, “Herbicidal pyrimidone derivatives” (E I du Pont de Nemours and Company, priority 2009, dated 2015)
